This passage reports IC50 and activity results from patent US20230322789A1, “PYRAZOLOPYRIDAZINONE COMPOUND, AND PHARMACEUTICAL COMPOSITION AND USE THEREOF” (BroadenBio Co., Ltd., priority 2020, published 2023).

One test deals with HPK1 (Homo sapiens (Human), UniProt Q92918). Nature of the test: HPK1 kinase activity inhibition test (ADP-Glo, luminescence). It counts as biochemical. As to conditions: HPK1 5 nM, ATP 2 μM, read-out: IC50, inhibitory effects of compounds on HPK1 kinase activity. The essentials:
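HPK1 autophosphorylation was run without added substrate. Kinase and compound were preincubated 10 min at 25° C., then ATP was added for 60 min at 25° C. ADP formed was detected by ADP-Glo luminescence, and IC50 was taken from a four-parameter nonlinear fit.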

Another test has as its system Human Jurkat-E6-1 cells. Nature of the test: Measurement of IL-2 secretion of Jurkat cells by ELISA. In kind it is cell-based. As to conditions: Homo sapiens, Jurkat E6.1, anti-CD3/anti-CD28 stimulation 24 hours, read-out: Percentage of the amount of IL-2 secreted from compound treated/DMSO-treated cells; for activity at 3 µM: test compound 3.0 μM. The essentials: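 Jurkat-E6-1 cells pre-incubated with compound for 30 min at 37° C, then stimulated 24 h with plate-bound anti-CD3 plus soluble anti-CD28. Secreted IL-2 in medium quantified by sandwich ELISA against a standard curve; expressed as percent of DMSO-treated cells.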

Chain of HPK1 (Q92918 whole entry): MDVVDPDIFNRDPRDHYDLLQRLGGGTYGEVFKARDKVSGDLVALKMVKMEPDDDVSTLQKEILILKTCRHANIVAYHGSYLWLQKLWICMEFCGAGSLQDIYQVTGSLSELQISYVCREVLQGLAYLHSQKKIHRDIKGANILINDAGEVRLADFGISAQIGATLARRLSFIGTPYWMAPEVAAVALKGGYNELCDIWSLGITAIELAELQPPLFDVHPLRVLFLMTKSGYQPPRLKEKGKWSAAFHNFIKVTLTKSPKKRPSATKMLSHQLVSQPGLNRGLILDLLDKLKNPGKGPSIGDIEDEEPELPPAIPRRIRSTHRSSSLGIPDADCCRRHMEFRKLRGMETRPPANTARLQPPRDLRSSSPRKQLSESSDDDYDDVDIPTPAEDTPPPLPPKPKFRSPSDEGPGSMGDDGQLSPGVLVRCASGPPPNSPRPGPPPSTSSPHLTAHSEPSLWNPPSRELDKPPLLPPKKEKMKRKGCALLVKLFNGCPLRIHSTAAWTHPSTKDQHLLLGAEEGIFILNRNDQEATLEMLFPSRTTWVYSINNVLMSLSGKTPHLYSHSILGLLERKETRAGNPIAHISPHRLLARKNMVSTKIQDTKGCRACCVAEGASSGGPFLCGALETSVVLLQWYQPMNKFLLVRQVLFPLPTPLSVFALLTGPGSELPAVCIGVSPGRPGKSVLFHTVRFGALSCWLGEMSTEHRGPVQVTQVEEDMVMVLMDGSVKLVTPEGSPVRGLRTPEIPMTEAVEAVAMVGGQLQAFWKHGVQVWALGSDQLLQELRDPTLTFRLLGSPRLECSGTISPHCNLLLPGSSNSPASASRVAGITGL

For `Cc1cccc(F)c1-n1nc2c(-c3ccc(N4CC5CCC(C4)N5C)nc3)n[nH]c2cc1=O` [Compound 109, 5-(2-fluoro-6-methylphenyl)-3-(6-(8-methyl-3,8-diazabicyclo[3.2.1]octan-3-yl)pyrid-3-yl)-1H-pyrazolo[4,3-c]pyridazin-6(5H)-one], the IC50 on HPK1 is at most 50 nM. In the test with Human Jurkat-E6-1 cells, the activity at 3 µM came to 491%.

On to `Cc1cccc(F)c1-n1nc2c(-c3ccc4c(c3)CN(C(C)CO)CC4)n[nH]c2cc1=O` (centres unmarked) [Compound 165, 5-(2-fluoro-6-methylphenyl)-3-(2-(1-hydroxylprop-2-yl)-1,2,3,4-tetrahydroisoquinolin-7-yl)-1H-pyrazolo[4,3-c]pyridazin-6(5H)-one], for which the IC50 on HPK1 was 50 to 500 nM. For the same molecule, the activity at 1 µM in the test on Human Jurkat-E6-1 cells (test compound 1.0 μM) is 181%.

As for `COc1cccc(F)c1-n1nc2c(-c3ccc(N4CCN(C)C(C(C)(C)OC)C4)cc3)n[nH]c2cc1=O` (centres unmarked) [Compound 127, 5-(2-fluoro-6-methoxyphenyl)-3-(4-(3-(2-methoxyprop-2-yl)-4-methylpiperazin-1-yl)phenyl)-1H-pyrazolo[4,3-c]pyridazin-6(5H)-one], the IC50 on HPK1 is at most 50 nM. Moreover, the activity at 3 µM in the test on Human Jurkat-E6-1 cells came out at 758%.

For `Cc1cc(C#N)cc(F)c1-n1nc2c(-c3ccc(N4CCN(C5CCOC5)CC4)cc3)n[nH]c2cc1=O` (centres unmarked) [Compound 85, 3-fluoro-5-methyl-4-(6-oxo-3-(4-(4-(tetrahydrofuran-3-yl)piperazin-1-yl)phenyl)-1H-pyrazolo[4,3-c]pyridazin-5(6H)-yl)benzonitrile], at HPK1, the IC50 is at most 50 nM. Moreover, the activity at 3 µM in the test on Human Jurkat-E6-1 cells stood at 239%.
